Source: patent publication US6046228A, “Anti-viral pharmaceutical compositions containing saturated 1,2-dithiaheterocyclic compounds and uses thereof” (priority 1999, dated 2000)
pEC50, pIC50: −log10 of the molar value.

Columns and labels:
HIV-1RF = test: effect of increasing multiplicity of infection, CEM-SS cells; format: cell-based; conditions: for pEC50: Human immunodeficiency virus 1, CEM-SS
Method: (§1) Initial anti-HIV screening was performed with CEM-SS cells and HIV-1RFusing the XTT cytoprotection assay as previously described (Weislow et al., J. National Cancer Inst. 81: 577-586, (1989)). HIV-1 isolates included common laboratory stains (RF, IIIB and MN), as well as a panel of HIV-1 clinical isolates (Cushman et al., J. Med. Chem. 37: 3040-3050, (1994)). The pyridone-resistant HIV-1A17 isolate (Nunberg et al., J. Virol., 65: 4887-4892 (1991)) was obtained from Emilio Emini at Merck Sharpe and Dohme Laboratories. Phytohemagglutinin-stimulated human peripheral blood lymphocytes (PBLs) and fresh monocyte-macrophage (Mono/MF) cultures were prepared and utilized in antiviral assays as previously described (Rice et al., Proc. Nat'l. Academy Science, USA 90: 9721-9724, (1993)); (Cushman et al., J. Med. Chem. 37: 3040-3050, (1994)). EC50 values for these cultures indicate the drug concentration that provided a 50% reduction in viral p24 production. […] The compounds can be synthesized according to the teachings of Singh et al., Sulfur Letters 8: 107-114, (1988). The 4,5-cis-dihydroxy(1,1-dioxy-1,2,-dithiohexane) compound (NSC 624151) has been abbreviated as 624151 for convenience. MT-2, MT-4, U1, HeLa-CD4-LTR-β-gal and 174xCEM cells were obtained from the AIDS Research and Reference Program (National Institute of Allergy and Infectious Disease, National Institutes of Health, Bethesda, Md. USA), as were the HIV-2MS and the AZT-resistant HIV-1G910-6 isolates.

SIV = test: XTT cytopathicity assay, other retroviruses; format: cell-based; conditions: Simian immunodeficiency virus
HIV-1 ROJO(SI) = test: antiviral assay in PBL (p24), clinical isolate ROJO; format: cell-based; conditions: Human immunodeficiency virus 1, cell-free p24
Method: as §1, with “MT-2, MT-4, U1, HeLa-CD4-LTR-β-gal and 174xCEM cells were obtained from the AIDS Research and Reference Program (National Institute of Allergy and Infectious Disease, National Institutes of Health, Bethesda, Md. USA), as were the HIV-2MS and the AZT-resistant HIV-1G910-6 isolates.” left out

HIV-1NL4-3 = test: XTT cytopathicity assay, NL4-3 without RT mutation; format: cell-based; conditions: Human immunodeficiency virus 1, NL43; MT-2, NL4-3, RT mutation None
Method: as §1, with “MT-2, MT-4, U1, HeLa-CD4-LTR-β-gal and 174xCEM cells were obtained from the AIDS Research and Reference Program (National Institute of Allergy and Infectious Disease, National Institutes of Health, Bethesda, Md. USA), as were the HIV-2MS and the AZT-resistant HIV-1G910-6 isolates.” left out

[1] = test system: fusion of cells expressing CD4 and gp120; test: fusion of target cells expressing CD4 and gp120; format: cell-based; conditions: in words
HIV-1 protease [2] = biological target: T1, HIV-1 protease (Human immunodeficiency virus type 1 group M subtype B, UniProt P04585); test: HIV-1 protease activity, reversed phase HPLC assay; format: biochemical
T1 construct: the purified HIV-1 protease and integrase enzymes

HIV-1 p7NC protein = biological target: T2, HIV-1 p7NC protein (Human immunodeficiency virus type 1 group M subtype B, UniProt P04591); test: Trp37 zinc finger fluorescence assay (zinc ejection from p7NC); format: biochemical; conditions: for p7NC Trp37 Assay (RFU): 25 μM compound; for loss of Trp37 fluorescence of p7NC: 25 μM
T2 construct: recombinant HIV-1 p7NC protein
Method: Fluorescence measurements of the Trp^37 residue in the C-terminal zinc finger of the recombinant HIV-1 p7NC protein were performed as previously described (Rice et al., Science 270:1194, 1995). The p7NC protein was prepared at 20 μg/ml in 10 mM sodium phosphate buffer (pH 7.0), treated with 25 μM of each compound, then after indicated time intervals the samples were diluted 1/10 in 10 mM sodium phosphate buffer (pH 7.0) and the fluorescence intensity measured. The excitation and emission wavelengths utilized with the Shimadzu RF5000 spectrofluorimeter were 280 nm and 351 nm, respectively. In an alternate assay, the zinc-selective fluorescent probe N-(6-methoxy-8quinolyl-)-p-toluenesulfonamide (TSQ, Molecular Probes, Eugene, Oreg.) originally described by Fredrickson (J. Neurosci. Meth. 20:91, 1987) was utilized to measure zinc released from the p7NC protein in vitro. Briefly, 2 μM recombinant HIV-1 p7NC protein in 10 mM sodium phosphate buffer, pH 7.0, 10% glycerol was treated with 10 μM 624151 ([…] total volume in 96-well plates), and the time-dependent increase in fluorescence was measured on a Labsystems Fluoroskan II (360 nm excitation filter and 460 nm emission filter) over a period of 2 hours. Induction of alterations of p7NC proteins within intact virions involved treatment of HIV-1MN for 1 hour at 37° C. with 25 μM test compound. Samples were centrifuged 1 hour at 4° C. under 18,000×g to pellet the virus from the drug. Virus pellets were resolved by non-reducing SDS-PAGE and analyzed by immunoblot using monospecific rabbit antisera to the purified p7NC protein.
^b The percent decrease in RFU was calculated based on measurement of
the initial fluorescence of the p7NC protein before and 10 minutes after
treatment with the 25 μM of compound at ambient temperature.
The ability of 624151 to chemically interact with the zinc fingers of the HIV-1 p7NC protein was initially determined by a fluorescence assay (Rice et al., Science 270:1194-1197, (1995)) that measures a loss in intrinsic fluorescence of the tryptophan (Trp^37) residue in the second finger of the protein that occurs upon loss of zinc from the finger (Summers et al., Protein Sci. 1:563, 1992). […] As the 624151 modifies the zinc finger thiolates and the zinc is ejected over time, the metal is bound by the TSQ fluorochrome (FIG. 1(B)).
Sodium Phosphate buffer, pH 7.0 in 1 ml was treated with 25 μM of
compound. At indicated times, the mixture was diluted 1/10 and the
relative fluorescence units (RFU) measured in a Shimadzu RF5000
spectrofluorimeter with […] and Em = 351 mn. Following
loss of zinc from the Cterminal zinc finger, the Trp37 residue folds away
from the # aqueous environment and experiences a loss of fluorescence.

HIV-1IIIB = test: XTT cytopathicity assay, HIV-1IIIB; format: cell-based
Method: as §1
^a Anti-HIV studies utilizing lymphocytederived cell lines were
performed using the XTT cytopathicity assay, while antiviral assays

HIV-1 protease [3] = biological target: T1, HIV-1 protease; test: processing of purified recombinant Pr55^gag by purified HIV-1 protease; format: biochemical; conditions: data not shown, in words

In the case of O=S1(=O)C[C@H](O)[C@H](O)CS1 (relative stereo) [NSC 624151, cis-1,1-dioxo[1,2]dithiane-4,5-diol], the pEC50 (HIV-1RF; MOI 0.01) was 5.08, the pEC50 (HIV-1RF; MOI 0.02) was 4.77 and the pEC50 (HIV-1RF; MOI 0.04) was 4.77. The pEC50 (HIV-1RF; MOI 0.08) was 4.56, the pEC50 (HIV-1RF; MOI 0.16) was 4.67 and the pEC50 (HIV-1RF; MOI 0.32) was 4.68. The “effect of increasing the MOI on activity” value (HIV-1RF; in words) was “relatively resistant to the effects of increasing the viral MOI”, the pEC50 (SIV) was 4.66 and the pEC50 (HIV-1 ROJO(SI)) was 4.60. The pEC50 (HIV-1NL4-3) was 4.78, the inhibition of fusion [1] was “did not inhibit” and the “inhibition of HIV-1 protease” value (HIV-1 protease [2]; in words) was “not inhibited”. For the same molecule, the pIC50 (HIV-1 protease [2]; read-out: Protease Activity ID50) was under 4.00, the “p7NC Trp37 Assay (RFU)” value (HIV-1 p7NC protein; 0 min) was 295 RFU and the “p7NC Trp37 Assay (RFU)” value (HIV-1 p7NC protein; 3 min) was 136 RFU. The “p7NC Trp37 Assay (RFU)” value (HIV-1 p7NC protein; 10 min) was 75 RFU, the “p7NC Trp37 Assay (RFU)” value (HIV-1 p7NC protein; 30 min) was 42 RFU and the “loss of Trp37 fluorescence of p7NC” value (HIV-1 p7NC protein; FIG. 1(A), in words) was “time dependent loss of fluorescence”. The “loss of Trp37 fluorescence of p7NC” value (HIV-1 p7NC protein; FIG. 1(A), in words, listed as 624151) was “time-dependent loss of fluorescence”, the zinc ejection (HIV-1 p7NC protein; FIG. 1(A), in words) was “promotes zinc ejection” and the “reactivity with the zinc fingers” value (HIV-1 p7NC protein; in words) was “reacted aggressively with the p7NC protein zinc fingers”. For the same molecule, the pEC50 (HIV-1IIIB; Human immunodeficiency virus 1, AA5(B, EBV+), HIV-1IIIB) was 4.59, the pEC50 (HIV-1IIIB; Human immunodeficiency virus 1, CEM-SS, CEM-SS (T), HIV-1IIIB, cell type panel) was 5.21 and the pEC50 (HIV-1IIIB; Human immunodeficiency virus 1, H9(T), HIV-1IIIB) was 4.89. It also gave a pEC50 (HIV-1IIIB; Human immunodeficiency virus 1, MT-2(T), HIV-1IIIB) of 4.73, an EC50 (HIV-1IIIB; Human immunodeficiency virus 1, U-937, U937(M), HIV-1IIIB) of 3.2e-06 M and a pEC50 (HIV-1IIIB; Human immunodeficiency virus 1, CEM-SS, IIIB, Laboratory HIV-1) of 4.68. For the same molecule, the “inhibition of infection by HIV-1IIIB in all cellular phenotypes tested” value (HIV-1IIIB; in words) was “inhibited by 624151 in all cellular phenotypes tested” and the “inhibition of purified HIV-1 protease processing of recombinant Pr55^gag” value (HIV-1 protease [3]) was “not to inhibit purified HIV-1 protease”.
